The target in series [1] is HCV replicon. In words: Anti-HCV replicon assay, EC50 (luciferase readout). The series is classed as cell-based. Particulars: Huh-7 HCV replicon cells, 3 days incubation, luciferase luminescence. As to the method:
(§1) The anti HCV activity of the quinazoline derivatives of this invention was tested in a human hepatoma Huh-7 cell line harbouring a HCV replicon. The assay comprised the following steps:
(§2) Step 1: compound preparation and serial dilution • 1. for water soluble quinazoline derivatives, a volume of 500 μL of solution in cell media (DMEM, 10% FBS, P/S, L-Glutamine) was prepared with a concentration being twice the concentration of the starting final serial dilution concentration. A volume of 150 μL of the solution was added to the pre-specified wells in column 1 of a 96-well cell culture plate (PerkinElmer, white plate, cat. #6005181, for EC50 assay; black plate, cat. #6005182 for CC50 assay). The rest of the plate, columns 2-12, was filled with 100 μL of cell media. The plate was then placed on a Precision 2000 Workstation to start the serial dilution. Compounds were diluted three times each step from column 1 to column 10. Column 11 was used as a blank control (no compound added). • 2. for quinazoline derivatives requiring DMSO to dissolve, serial dilution is performed in 50% DMSO in a 384-well plate. A solution containing a compound at 100-fold concentration of the starting final serial dilution concentration was prepared in 50% DMSO and added to the pre-specified wells in column 1 of a polypropylene 384-well plate. The plate was then placed on a Precision 2000 Workstation to start the serial dilution. After the serial dilution, a volume of 2 μL of the solution was transferred from the 384-well plate to a 96-well cell culture plate containing 100 μL of cell media on a Biomek FX Workstation. The DMSO concentration in the final assay condition was 0.5% after cells are added to the plate and the total volume in each well is brought to 200 μL.
(§3) Step 2: to each well of the serial dilution plate prepared above, 100 μL of cell media containing 6000 suspended Huh-7 HCV replicon cells was added with a Multidrop workstation. The plates were incubated for 3 days at 37° C. with 5% CO2.
(§4) Step 3: detection: • a) for the EC50 assay, the media in a 96-well cell culture plate was aspirated with a Biotek EL405 plate-washer. A volume of 200 μL of a solution containing a 1:1 mixture of cell-lysis buffer (Promega, Luciferase Cell Culture Lysis 5× Reagent, cat. #E1531) and luciferase substrate solution (Promega, Luciferase Assay, cat.# E4550) was added to each well of the plate with Multidrop. The plate was incubated for 30 minutes at room temperature before the luminescence signal was measured with a TopCount plate-reader. • b) for the CC50 assay, a volume of 100 μL of pre-mixed CellTiter-Glo (Promega, cat.# G7572) solution is added directly to the cell culture in each well of the plate and the luminescence signal is measured with a TopCount plate-reader after 10 minutes of incubation at room temperature.
(§5) Results in the table below are expressed by the following data: • the 50% cytostatic concentration (CC50), i.e. the concentration that results in 50% inhibition of cell growth, and • the 50% effective concentration (EC50), i.e. the concentration that […].
(In general: Replicon systems follow genome replication, usually without infectious particles.)

Series [2] can be described thus: CC50 assay in the anti-HCV replicon assay (CellTiter-Glo). In kind it is cell-based, human. Particulars: human, Huh-7 hepatoma cells harbouring an HCV replicon; Huh-7 HCV replicon cells, 3 days incubation, CellTiter-Glo luminescence. As to the method: as §1, §2, §3, §4, §5

One may read the EC50 as the midpoint of the concentration-response curve. As for “4-(4-(2-methmethoxy)-quinazolin-6-yl)-N-methyl-benzamide [Example 246]”, in series [1], the EC50 lay in the range of 1 to 10 µM.
As a reminder, the CC50 is the concentration giving 50% cytotoxicity. Low readings indicate greater toxicity to the cells, high ones lower toxicity to the cells. Take `COc1ccc(-c2ccc3nc(N)nc(OC(C)C)c3c2)cc1OC` [Example 18, 2-amino-6-(3,4-dimethoxyphenyl)-4-isopropoxy-quinazoline]: the EC50 in series [1] (Hepatitis C virus, 72 h) was less than 0.3 µM. This compound also registered a CC50 at 3 days in series [2] of less than 10 µM.
Consider `CCOc1nc(N)nc2ccc(-c3ccc(F)cc3)cc12` [Example 19, 2-amino-4-ethoxy-6-(4-fluorophenyl)-quinazoline], for which the concentration giving a half-maximal response (EC50) in series [1] (Hepatitis C virus, 72 h) fell in the range of 1 to 10 µM. In series [2], the half-maximal cytotoxic concentration (CC50) at 3 days was more than 20 µM.
In the case of `COCCOc1nc(N)nc2ccc(-c3ccc(F)cc3)cc12` [Example 20, 2-amino-6-(4-fluorophenyl)-4-(2-methoxyethoxy)-quinazoline], the EC50 in series [1] (Hepatitis C virus, 72 h) lay in the range of 1 to 10 µM. In series [2], this compound had a half-maximal cytotoxic concentration (CC50) at 3 days of 10 to 20 µM.
For `CC(C)Oc1nc(N)nc2ccc(-c3ccc(F)cc3)cc12` [Example 21, 2-amino-6-(4-fluorophenyl)-4-isopropoxy-quinazoline], in series [1] (Hepatitis C virus, 72 h), the EC50 is 1 to 10 µM. In addition, the CC50 at 3 days in series [2] was more than 20 µM.
`Nc1nc(OCC(F)(F)F)c2cc(-c3ccc(F)cc3)ccc2n1` [Example 26, 2-amino-6-(4-fluorophenyl)-4-(2,2,2-trifluoroethoxy)-quinazoline]: the EC50 in series [1] (Hepatitis C virus, 72 h) lay within 1 to 10 µM. For the same compound, the CC50 at 3 days in series [2] was 10 to 20 µM.
For the compound `CC(=O)Nc1ccc(-c2ccc3nc(N)nc(OC(C)C)c3c2)cc1` [Example 27, 2-amino-6-(4-acetamidophenyl)-4-isopropoxy-quinazoline], in series [1] (Hepatitis C virus, 72 h), the EC50 fell in the range of 0.3 to 1 µM. The compound further yielded a CC50 at 3 days in series [2] of more than 20 µM.
In turn, `COCCOc1nc(N)nc2ccc(-c3ccc(NC(C)=O)cc3)cc12` [Example 28, 2-amino-6-(4-acetamidophenyl)-4-(2-methoxyethoxy)-quinazoline] came in with an EC50 in series [1] (Hepatitis C virus, 72 h) of 0.3 to 1 µM. Besides, the CC50 at 3 days in series [2] was in the range of 10 to 20 µM.
In series [1] (Hepatitis C virus, 72 h), `CC(=O)Nc1ccc(-c2ccc3nc(N)nc(OCCN4CCOCC4)c3c2)cc1` [Example 29, 2-amino-6-(4-acetamidophenyl)-4-[2-(4-morpholinyl)ethoxy]-quinazoline] returned an EC50 of 0.3 to 1 µM. Also, in series [2], the CC50 at 3 days was more than 20 µM.
As for `CCOc1nc(N)nc2ccc(-c3ccc(NC(C)=O)cc3)cc12` [Example 30, 2-amino-6-(4-acetamidophenyl)-4-ethoxy-quinazoline], the EC50 in series [1] (Hepatitis C virus, 72 h) fell in the range of 0.3 to 1 µM. Further, the CC50 at 3 days in series [2] is more than 20 µM.
Compound `CC(=O)Nc1ccc(-c2ccc3nc(N)nc(OCC4CC4)c3c2)cc1` [Example 31, 2-amino-6-(4-acetamidophenyl)-4-(cyclopropyl-methoxy)-quinazoline] had an EC50 in series [1] (Hepatitis C virus, 72 h) of 0.3 to 1 µM. Further, the half-maximal cytotoxic concentration (CC50) at 3 days in series [2] was more than 20 µM.
`CC(=O)Nc1ccc(-c2ccc3nc(N)nc(OCC(F)(F)F)c3c2)cc1` [Example 32, 2-amino-6-(4-acetamidophenyl)-4-(2,2,2-trifluoroethoxy)-quinazoline] returned an EC50 in series [1] (Hepatitis C virus, 72 h) of 0.3 to 1 µM. Besides, the cytotoxic concentration (CC50) at 3 days in series [2] was more than 20 µM.
`CCOc1ncnc2ccc(-c3ccc(F)cc3)cc12` [Example 34, 4-ethoxy-6-(4-fluorophenyl)-quinazoline] showed an EC50 in series [1] (Hepatitis C virus, 72 h) of 0.3 to 1 µM. Besides, the CC50 at 3 days in series [2] was more than 20 µM.
In series [1] (Hepatitis C virus, 72 h), `COCCOc1ncnc2ccc(-c3ccc(F)cc3)cc12` [Example 35, 4-(2-methoxyethoxy)-6-(4-fluorophenyl)-quinazoline] returned an EC50 of 1 to 10 µM. For the same compound, the CC50 at 3 days in series [2] is more than 20 µM.
Turning to `CCOc1nc(N)nc2ccc(-c3cccc(F)c3F)cc12` [Example 38], the EC50 in series [1] (Hepatitis C virus, 72 h) fell in the range of 1 to 10 µM. This compound yielded a CC50 at 3 days in series [2] of 10 to 20 µM.
`CCOc1nc(N)nc2ccc(-c3ccc(C)cc3)cc12` [Example 39, 4-Ethoxy-6-p-tolyl-quinazolin-2-ylamine] returned an EC50 in series [1] (Hepatitis C virus, 72 h) of 1 to 10 µM. The same compound registered a CC50 at 3 days in series [2] of more than 20 µM.
With `CCOc1nc(N)nc2ccc(-c3ccoc3)cc12` [Example 40, 4-Ethoxy-6-furan-3-yl-quinazolin-2-ylamine], the EC50 in series [1] (Hepatitis C virus, 72 h) is 1 to 10 µM. Moreover, the half-maximal cytotoxic concentration (CC50) at 3 days in series [2] was more than 20 µM.
The compound `CCOc1nc(N)nc2ccc(-c3ccn[nH]3)cc12` [Example 41, 4-Ethoxy-6-(2H-pyrazol-3-yl)-quinazolin-2-ylamine] registered an EC50 in series [1] (Hepatitis C virus, 72 h) of 1 to 10 µM. This compound registered a CC50 at 3 days in series [2] of more than 20 µM.
Compound `CCOc1nc(N)nc2ccc(-c3cccs3)cc12` [Example 42, 4-Ethoxy-6-thiophen-2-yl-quinazolin-2-ylamine] returned an EC50 in series [1] (Hepatitis C virus, 72 h) of 1 to 10 µM. This compound yielded a cytotoxic concentration (CC50) at 3 days in series [2] of less than 10 µM.
In the same order, the values of `CCOc1nc(N)nc2ccc(-c3ccc(C(=O)NC)cc3)cc12` [Example 43, 4-(2-Amino-4-ethoxy-quinazolin-6-yl)-N-methyl-benzamide] are less than 0.3 µM and more than 20 µM.
In the case of `CCOc1nc(N)nc2ccc(-c3ccco3)cc12` [Example 44, 4-Ethoxy-6-furan-2-yl-quinazolin-2-ylamine], the concentration giving a half-maximal response (EC50) in series [1] (Hepatitis C virus, 72 h) was in the range of 1 to 10 µM. Also, the CC50 at 3 days in series [2] is more than 20 µM.
Turning to `CCOc1nc(N)nc2ccc(-c3ccsc3)cc12` [Example 45, 4-Ethoxy-6-thiophen-3-yl-quinazolin-2-ylamine], the EC50 in series [1] (Hepatitis C virus, 72 h) was in the range of 1 to 10 µM. The cytotoxic concentration (CC50) at 3 days in series [2] is more than 20 µM.
In the same order, the values of `CCOc1nc(N)nc2ccc(-c3ccc(F)c(F)c3)cc12` [Example 46, 6-(3,4-Difluoro-phenyl)-4-ethoxy-quinazolin-2-ylamine] are 1 to 10 µM and more than 20 µM.
Consider `CCOc1nc(N)nc2ccc(-c3cccc(C#N)c3)cc12` [Example 47, 3-(2-Amino-4-ethoxy-quinazolin-6-yl)-benzonitrile], for which the EC50 in series [1] (Hepatitis C virus, 72 h) lay in the range of 1 to 10 µM. For the same compound, the cytotoxic concentration (CC50) at 3 days in series [2] was more than 20 µM.
Consider `CCOc1nc(N)nc2ccc(-c3cn[nH]c3)cc12` [Example 48, 4-Ethoxy-6-(2H-pyrazol-4-yl)-quinazolin-2-ylamine], for which the EC50 in series [1] (Hepatitis C virus, 72 h) was 0.3 to 1 µM. Also, the CC50 at 3 days in series [2] was more than 20 µM.
For the compound `CCOc1nc(N)nc2ccc(-c3ccc(N)cc3)cc12` [Example 49, 6-(4-Amino-phenyl)-4-ethoxy-quinazolin-2-ylamine], in series [1] (Hepatitis C virus, 72 h), the EC50 lay within 1 to 10 µM. In addition, the CC50 at 3 days in series [2] is more than 20 µM.
Compound `CCOc1nc(N)nc2ccc(-c3ccc(F)c(F)c3F)cc12` [Example 50, 4-Ethoxy-6-(2,3,4-trifluoro-phenyl)-quinazolin-2-ylamine] showed an EC50 in series [1] (Hepatitis C virus, 72 h) of 1 to 10 µM. The same compound gave a CC50 at 3 days in series [2] of 10 to 20 µM.
Turning to `CCOc1nc(N)nc2ccc(-c3ccc(O)cc3)cc12` [Example 51, 4-(2-Amino-4-ethoxy-quinazolin-6-yl)-phenol], in series [1] (Hepatitis C virus, 72 h), the EC50 is 0.3 to 1 µM. The half-maximal cytotoxic concentration (CC50) at 3 days in series [2] lay within 10 to 20 µM.
For `COCCOc1nc(N)nc2ccc(-c3cccc(F)c3F)cc12` [Example 52, 6-(2,3-Difluoro-phenyl)-4-(2-methoxy-ethoxy)-quinazolin-2-ylamine], the EC50 in series [1] (Hepatitis C virus, 72 h) lay in the range of 1 to 10 µM. For the same compound, the CC50 at 3 days in series [2] was 10 to 20 µM.
In the same order, the values of `COCCOc1nc(N)nc2ccc(-c3ccccc3C(F)(F)F)cc12` [Example 53, 4-(2-Methoxy-ethoxy)-6-(2-trifluoromethyl-phenyl)-quinazolin-2-ylamine] are 1 to 10 µM and less than 10 µM.
Take `COCCOc1nc(N)nc2ccc(-c3ccc(Cl)s3)cc12` [Example 54, 6-(5-Chloro-thiophen-2-yl)-4-(2-methoxy-ethoxy)-quinazolin-2-ylamine]: the 50% effective concentration (EC50) in series [1] (Hepatitis C virus, 72 h) was in the range of 1 to 10 µM. The CC50 at 3 days in series [2] was more than 20 µM.
With `COCCOc1nc(N)nc2ccc(-c3ccc(C)cc3)cc12` [Example 55, 4-(2-Methoxy-ethoxy)-6-p-tolyl-quinazolin-2-ylamine], the EC50 in series [1] (Hepatitis C virus, 72 h) is 1 to 10 µM. This compound also registered a CC50 at 3 days in series [2] of more than 20 µM.
In the case of `COCCOc1nc(N)nc2ccc(-c3cc4ccccc4s3)cc12` [Example 56, 6-Benzo[b]thiophen-2-yl-4-(2-methoxy-ethoxy)-quinazolin-2-ylamine], the concentration giving a half-maximal response (EC50) in series [1] (Hepatitis C virus, 72 h) fell in the range of 1 to 10 µM. Further, the CC50 at 3 days in series [2] is more than 20 µM.
In the same order, the values of `COCCOc1nc(N)nc2ccc(-c3cc4ccccc4o3)cc12` [Example 57, 6-Benzofuran-2-yl-4-(2-methoxy-ethoxy)-quinazolin-2-ylamine] are 1 to 10 µM and 10 to 20 µM.

The values above are taken from patent US8673929B2, “4,6-di- and 2,4,6-trisubstituted quinazoline derivatives and pharmaceutical compositions useful for treating viral infections” (priority 2006, dated 2014).
